Test results published in patent US9221834B2 (Merck Sharp & Dohme Corp., priority 2010, dated 2015).
Where a name gives a salt, the structure may show the parent alone.

These molecules were tested against T1, recombinant CETP (rCETP) (Homo sapiens, UniProt P11597) (assay: RTA assay using recombinant CETP (2% RTA)). Settings: RTA assay in 2% human serum; read-out: IC50.
T1 sequence (P11597 18-493): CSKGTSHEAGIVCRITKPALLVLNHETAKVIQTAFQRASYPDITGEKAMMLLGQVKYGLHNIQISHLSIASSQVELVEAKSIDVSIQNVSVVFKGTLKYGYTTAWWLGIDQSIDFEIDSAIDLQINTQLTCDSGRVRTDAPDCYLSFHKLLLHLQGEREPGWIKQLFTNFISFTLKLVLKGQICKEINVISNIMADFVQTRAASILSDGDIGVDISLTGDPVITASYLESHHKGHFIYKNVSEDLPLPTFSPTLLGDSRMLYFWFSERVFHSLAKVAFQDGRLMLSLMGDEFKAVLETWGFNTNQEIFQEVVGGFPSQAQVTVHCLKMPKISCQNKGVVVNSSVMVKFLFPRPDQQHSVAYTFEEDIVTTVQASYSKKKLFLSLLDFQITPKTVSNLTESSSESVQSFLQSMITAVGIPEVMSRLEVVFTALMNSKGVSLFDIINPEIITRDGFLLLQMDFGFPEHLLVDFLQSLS
Format: biochemical
How it was run: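 Compounds preincubated 1 h at 37 °C with assay cocktail (CETP buffer: 50 mM Tris pH 7.4, 100 mM NaCl, 1 mM EDTA; human HDL acceptor); transfer started with [3H]cholesteryl oleate- or [3H]triolein-labelled LDL, 60 min at 37 °C. LDL PEG-precipitated; supernatant counted by scintillation, blank-corrected; IC50 from 4-parameter sigmoidal fit of % inhibition vs DMSO control.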

Going from `COc1ccc(CCC(=O)O)cc1-c1ccc(N2CCC2)nc1CN1C(=O)O[C@H](c2cc(C)cc(C)c2)[C@@H]1C` [Example 228, 3-[3-(6-azetidin-1-yl-2-{[(4S,5R)-5-(3,5-dimethylphenyl)-4-methyl-2-oxo-1,3-oxazolidin-3-yl]methyl}pyridin-3-yl)-4-methoxyphenyl]propanoic acid] to `COc1ccc(CCC(N)=O)cc1-c1ccc(N2CCC2)nc1CN1C(=O)O[C@H](c2cc(C)cc(C)c2)[C@@H]1C` [Example 249, 3-[3-(6-azetidin-1-yl-2-{[(4S,5R)-5-(3,5-dimethylphenyl)-4-methyl-2-oxo-1,3-oxazolidin-3-yl]methyl}pyridin-3-yl)-4-methoxyphenyl]propanamide], the IC50 rises from 47 nM to 105 nM (2.2-fold). The first is the more potent here.

Going from `COc1cc2c(cc1-c1ccc(N3CCC3)nc1CN1C(=O)O[C@H](c3cccc(C(F)(F)F)c3)[C@@H]1C)[C@H](CC(=O)O)CC2` [Example 229] to `COc1cc2c(cc1-c1ccc(N3CCC3)nc1CN1C(=O)O[C@H](c3cccc(C)c3)[C@@H]1C)[C@H](CC(=O)O)CC2` [Example 231], the IC50 rises from 161 nM to 403 nM (2.5-fold).

First: COc1cc2c(cc1-c1ccc(N3CCC3)nc1CN1C(=O)O[C@H](c3cc(C)cc(C)c3)[C@@H]1C)[C@H](CC(=O)O)CC2 [Example 230]
Second: COc1ccc([C@@H]2C[C@H]2C(=O)O)cc1-c1ccc(N2CCC2)nc1CN1C(=O)O[C@H](c2cc(C)cc(C)c2)[C@@H]1C [Example 233]
The IC50 of the first is 2.5-fold higher: 95 nM for the first, 38 nM for the second.

`COc1ccc([C@@H]2C[C@H]2C(=O)O)cc1-c1ccc(N2CCC2)nc1CN1C(=O)O[C@H](c2cccc(C(F)(F)F)c2)[C@@H]1C` [Example 232] and `COc1ccc([C@@H]2C[C@H]2C(N)=O)cc1-c1ccc(N2CCC2)nc1CN1C(=O)O[C@H](c2cccc(C(F)(F)F)c2)[C@@H]1C` [Example 252] are within 1.5-fold of each other in IC50: 54 nM for the first, 63 nM for the second.

Compared with `COc1ccc([C@@H]2C[C@H]2C(=O)O)cc1-c1ccc(N2CCC2)nc1CN1C(=O)O[C@H](c2cccc(C)c2)[C@@H]1C` [Example 234], `COc1ccc([C@@H]2C[C@H]2C(N)=O)cc1-c1ccc(N2CCC2)nc1CN1C(=O)O[C@H](c2cc(C)cc(C)c2)[C@@H]1C` [Example 250] is 4.9-fold lower in IC50: 267 nM for the first, 54 nM for the second.

First: COc1ccc(-c2ccc(C(=O)O)cc2C)cc1-c1ccc(N2CCC2)nc1CN1C(=O)O[C@H](c2cccc(C(F)(F)F)c2)[C@@H]1C [Example 235]
Second: COc1ccc(-c2ccc(C(=O)O)cc2C)cc1-c1ccc(N2CCC2)nc1CN1C(=O)O[C@H](c2cccc(C)c2)[C@@H]1C [Example 237]
The IC50 of the first is 1.7-fold lower: 6 nM for the first, 10 nM for the second.

Compared with `COc1ccc(-c2ccc(C(=O)O)cc2C)cc1-c1ccc(N2CCC2)nc1CN1C(=O)O[C@H](c2cc(C)cc(C)c2)[C@@H]1C` [Example 236], `COc1cc(F)c(-c2ccc(C(=O)O)cc2C)cc1-c1ccc(N2CCC2)nc1CN1C(=O)O[C@H](c2cc(C#N)cc(C(F)(F)F)c2)[C@@H]1C` [Example 247] is 3.4-fold higher in IC50: 13 nM for the first, 44 nM for the second. The first is the more potent here.

Going from `C[C@H]1[C@@H](c2cc(C(F)(F)F)cc(C(F)(F)F)c2)OC(=O)N1Cc1nc(N2CCC2)ccc1-c1cc(CCC(=O)O)ccc1OC1CC1` [Example 248] to `C[C@H]1[C@@H](c2cc(C(F)(F)F)cc(C(F)(F)F)c2)OC(=O)N1Cc1nc(N2CCC2)ccc1-c1cc(CCCO)ccc1OC1CC1` [Example 260], the IC50 falls from 19 nM to 12 nM (1.6-fold). The second is the more potent here.

Going from `COc1ccc([C@H]2CC[C@H](C(N)=O)CC2)cc1-c1ccc(N2CCC2)nc1CN1C(=O)O[C@H](c2cccc(C(F)(F)F)c2)[C@@H]1C` [Example 251] to `COc1ccc([C@H]2CC[C@H](C(=O)O)CC2)cc1-c1cnc(N2CCC2)nc1CN1C(=O)O[C@H](c2cccc(C(F)(F)F)c2)[C@@H]1C` [Example 272], the IC50 rises from 24 nM to 165 nM (6.9-fold). The first is the more potent here.

First: COc1ccc([C@H]2CC[C@H](C(N)=O)CC2)cc1-c1ccc(N2CCC2)nc1CN1C(=O)O[C@H](c2cc(C)cc(C)c2)[C@@H]1C [Example 253, trans-4-[3-(6-azetidin-1-yl-2-{[(4S,5R)-5-(3,5-dimethylphenyl)-4-methyl-2-oxo-1,3-oxazolidin-3-yl]methyl}pyridin-3-yl)-4-methoxyphenyl]cyclohexanecarboxamide]
Second: COc1ccc([C@H]2CC[C@H](C#N)CC2)cc1-c1ccc(N2CCC2)nc1CN1C(=O)O[C@H](c2cc(C)cc(C)c2)[C@@H]1C [Example 255]
The IC50 of the first is 17-fold lower: 23 nM for the first, 395 nM for the second. The first is the more potent here.

Compared with `COc1ccc(CC(N)=O)cc1-c1ccc(N2CCC2)nc1CN1C(=O)O[C@H](c2cc(C(F)(F)F)cc(C(F)(F)F)c2)[C@@H]1C` [Example 254, 2-{3-[6-azetidin-1-yl-2-({(4S,5R)-5-[3,5-bis(trifluoromethyl)phenyl]-4-methyl-2-oxo-1,3-oxazolidin-3-yl}methyl)pyridin-3-yl]-4-methoxyphenyl}acetamide], `COc1ccc(CO)cc1-c1ccc(N2CCC2)nc1CN1C(=O)O[C@H](c2cc(C(F)(F)F)cc(C(F)(F)F)c2)[C@@H]1C` [Example 258] is 2.1-fold lower in IC50: 15 nM for the first, 7 nM for the second.

`COc1ccc(CC#N)cc1-c1ccc(N2CCC2)nc1CN1C(=O)O[C@H](c2cc(C(F)(F)F)cc(C(F)(F)F)c2)[C@@H]1C` [Example 256, {3-[6-azetidin-1-yl-2-({(4S,5R)-5-[3,5-bis(trifluoromethyl)phenyl]-4-methyl-2-oxo-1,3-oxazolidin-3-yl}methyl)pyridin-3-yl]-4-methoxyphenyl}acetonitrile] and `COc1ccc(CCO)cc1-c1ccc(N2CCC2)nc1CN1C(=O)O[C@H](c2cc(C(F)(F)F)cc(C(F)(F)F)c2)[C@@H]1C` [Example 259, (4S,5R)-3-({6-azetidin-1-yl-3-[5-(2-hydroxyethyl)-2-methoxyphenyl]pyridin-2-yl}methyl)-5-[3,5-bis(trifluoromethyl)phenyl]-4-methyl-1,3-oxazolidin-2-one] are within 1.5-fold of each other in IC50: 5 nM for the first, 4 nM for the second.

Compared with `COc1ccc(-c2ccc(O)c(C(C)=O)c2)cc1-c1ccc(N2CCC2)nc1CN1C(=O)O[C@H](c2cc(C(F)(F)F)cc(C(F)(F)F)c2)[C@@H]1C` [Example 257, (4S,5R)-3-{[3-(3′-acetyl-4′-hydroxy-4-methoxybiphenyl-3-yl)-6-azetidin-1-ylpyridin-2-yl]methyl}-5-[3,5-bis(trifluoromethyl)phenyl]-4-methyl-1,3-oxazolidin-2-one], `COc1ccc(CCCO)cc1-c1ccc(N2CCC2)nc1CN1C(=O)O[C@H](c2cc(C(F)(F)F)cc(C(F)(F)F)c2)[C@@H]1C` [Example 264, (4S,5R)-3-({6-azetidin-1-yl-3-[5-(3-hydroxypropy)-2-methoxyphenyl]pyridin-2-yl}methyl)-5-[3,5-bis(trifluoromethyl)phenyl]-4-methyl-1,3-oxazolidin-2-one] is 45-fold lower in IC50: 90 nM for the first, 2 nM for the second.

Going from `COCCCc1ccc(OC2CC2)c(-c2ccc(N3CCC3)nc2CN2C(=O)O[C@H](c3cc(C(F)(F)F)cc(C(F)(F)F)c3)[C@@H]2C)c1` [Example 261] to `COc1ccc(CCC(=O)O)cc1-c1ccc(N2CCCCC2)nc1CN1C(=O)O[C@H](c2cc(C(F)(F)F)cc(C(F)(F)F)c2)[C@@H]1C` [Example 271, 3-{3-[2-({(4S,5R)-5-[3,5-bis(trifluoromethyl)phenyl]-4-methyl-2-oxo-1,3-oxazolidin-3-yl}methyl)-6-piperidin-1-ylpyridin-3-yl]-4-methoxyphenyl}propanoic acid], the IC50 rises from 42 nM to 96 nM (2.3-fold).

Compared with `COc1ccc(Cc2nc[nH]n2)cc1-c1ccc(N2CCC2)nc1CN1C(=O)O[C@H](c2cc(C(F)(F)F)cc(C(F)(F)F)c2)[C@@H]1C` [Example 265], `COc1ccc(CCc2nc[nH]n2)cc1-c1ccc(N2CCC2)nc1CN1C(=O)O[C@H](c2cc(C(F)(F)F)cc(C(F)(F)F)c2)[C@@H]1C` [Example 270, (4S,5R)-3-[(6-azetidin-1-yl-3-{2-methoxy-5-[2-(1H-1,2,4-triazol-3-yl)ethyl]phenyl}pyridin-2-yl)methyl]-5-[3,5-bis(trifluoromethyl)phenyl]-4-methyl-1,3-oxazolidin-2-one] is 3.3-fold lower in IC50: 23 nM for the first, 7 nM for the second.

`COc1ccc(Cc2nn[nH]n2)cc1-c1ccc(N2CCC2)nc1CN1C(=O)O[C@H](c2cc(C(F)(F)F)cc(C(F)(F)F)c2)[C@@H]1C` [Example 266, (4S,5R)-3-({6-azetidin-1-yl-3-[2-methoxy-5-(2H-tetrazol-5-ylmethyl)phenyl]pyridin-2-yl}methyl)-5-[3,5-bis(trifluoromethyl)phenyl]-4-methyl-1,3-oxazolidin-2-one] and `COc1ccc(Cc2ncc[nH]2)cc1-c1ccc(N2CCC2)nc1CN1C(=O)O[C@H](c2cc(C(F)(F)F)cc(C(F)(F)F)c2)[C@@H]1C` [Example 267, (4S,5R)-3-({6-azetidin-1-yl-3-[5-(1H-imidazol-2-ylmethyl)-2-methoxyphenyl]pyridin-2-yl}methyl)-5-[3,5-bis(trifluoromethyl)phenyl]-4-methyl-1,3-oxazolidin-2-one] are within 1.5-fold of each other in IC50: 79 nM for the first, 67 nM for the second.

Going from `COc1ccc(CCc2ncc[nH]2)cc1-c1ccc(N2CCC2)nc1CN1C(=O)O[C@H](c2cc(C(F)(F)F)cc(C(F)(F)F)c2)[C@@H]1C` [Example 268] to `COc1ccc(CCc2n(C)cc[n+]2C)cc1-c1ccc(N2CCC2)nc1CN1C(=O)O[C@H](c2cc(C(F)(F)F)cc(C(F)(F)F)c2)[C@@H]1C` [Example 269, 2-(2-{3-[6-azetidin-1-yl-2-({(4S,5R)-5-[3,5-bis(trifluoromethyl)phenyl]-4-methyl-2-oxo-1,3-oxazolidin-3-yl}methyl)pyridin-3-yl]-4-methoxyphenyl}ethyl)-1,3-dimethyl-1H-imidazol-3-ium formate], the IC50 rises from 91 nM to 175 nM (1.9-fold).
